Test results published in publication PMC8699884, “High-Throughput Functional Analysis of CFTR and Other Apically Localized Proteins in iPSC-Derived Human Intestinal Organoids” (Cells, 2021).

Molecular target: T1, SLC6A14 (Homo sapiens, UniProt Q9UN76)
T1 construct: endogenous transporter in opened human intestinal organoids
T1 sequence (Q9UN76 1-642): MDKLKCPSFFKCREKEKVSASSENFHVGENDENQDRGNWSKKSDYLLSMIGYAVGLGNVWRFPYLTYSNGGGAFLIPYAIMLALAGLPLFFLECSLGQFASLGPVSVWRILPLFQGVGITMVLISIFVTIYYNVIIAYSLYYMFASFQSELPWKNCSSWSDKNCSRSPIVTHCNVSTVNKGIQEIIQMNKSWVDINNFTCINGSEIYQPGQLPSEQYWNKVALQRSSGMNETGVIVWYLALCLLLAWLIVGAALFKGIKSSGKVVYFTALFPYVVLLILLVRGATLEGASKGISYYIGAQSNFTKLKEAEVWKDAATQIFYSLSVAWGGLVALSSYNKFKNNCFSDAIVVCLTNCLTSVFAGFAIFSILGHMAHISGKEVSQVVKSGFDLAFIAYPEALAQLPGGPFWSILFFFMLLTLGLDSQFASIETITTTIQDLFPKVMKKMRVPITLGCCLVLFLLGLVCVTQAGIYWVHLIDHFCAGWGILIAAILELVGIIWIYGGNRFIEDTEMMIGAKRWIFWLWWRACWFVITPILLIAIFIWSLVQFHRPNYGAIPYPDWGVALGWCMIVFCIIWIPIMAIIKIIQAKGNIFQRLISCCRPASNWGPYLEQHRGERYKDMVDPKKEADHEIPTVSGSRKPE
Assay: FLIPR membrane potential (AAC) assay, α-MT-sensitive electrogenic uptake at […]
Assay type: cell-based

N=C(N)NCCC[C@H](N)C(=O)O [L-Arg]
FLIPR membrane potential (AAC) assay, α-MT-sensitive electrogenic uptake at 1 mM: the addition of arginine (L-Arg) to the apical surface of these opened organoids evokes apical membrane depolarization
